For one test, the system named is FoxM1. The test can be described thus: FoxM1 expression by qPCR on barcoded mRNA from drug-treated MCF-7 cells in droplets. Type of test: cell-based. Conditions: 12 h at 37° C., barcode combination 1A, qPCR (FIG. 8B). An excerpt: (§1) Barcoding cellular mRNA according to particular drug treatments. The combinatorial microfluidic chip was used to generate droplets containing the following components: • MCF-7 cells+media+ligation mix+barcode fragment BC-1+barcode fragment BC-A+Thiostrepton • MCF-7 cells+media+ligation mix+barcode fragment BC-2+barcode fragment BC-B+Doxorubicin treated cells • MCF-7 cells+media+ligation mix+barcode fragment BC-1+barcode fragment BC-B The resulting emulsions were collected separately in droplet traps (as shown in Hu H et al., Lab Chip 2015) for 12 h at 37° C., before cell lysis was achieved by repeated freezing and thawing. Then the emulsion was broken and hybridized cellular mRNA was purified using streptaviding-coated beads. This step ensures that only mRNA hybridized to ligated barcode combinations (e.g. 1A for the Thiostrepton sample) is isolated. Subsequently reverse transcription was carried out and the abundance of target genes was assessed by qPCR using primers specific for the target genes. Barcode fragment combination is shown exemplary for fragments BC-A and BC-1 in FIG. 7, as well as the reverse transcription and qPCR using the barcode. Expression levels of p21 (FIG. 8A) and FoxM1 (FIG. 8B) were normalized to Actb expression and the fold change in expression was determined between treated and untreated cells.
A general note: Quantitative PCR measures a nucleic acid by following its amplification.

The test system of the next test is p21. The test can be described thus: p21 expression by qPCR on barcoded mRNA from drug-treated MCF-7 cells in droplets. Type of test: cell-based. Conditions: 12 h at 37° C., barcode 2B, qPCR (FIG. 8A).
Description: as §1

As to `C=C(NC(=O)C(=C)NC(=O)c1csc(C2=N[C@@H]3c4csc(n4)[C@H]4NC(=O)c5csc(n5)[C@H]([C@](C)(O)[C@@H](C)O)NC(=O)[C@H]5CSC(=N5)/C(=C/C)NC(=O)[C@H]([C@@H](C)O)NC(=O)c5csc(n5)[C@]3(CC2)NC(=O)[C@H](C)NC(=O)C(=C)NC(=O)[C@H](C)NC(=O)[C@H]([C@@H](C)CC)N[C@@H]2C=Cc3c([C@H](C)O)cc(nc3[C@H]2O)C(=O)O[C@@H]4C)n1)C(N)=O` [Thiostrepton], the “FoxM1 expression normalized to Actb expression, fold change between treated and untreated cells” value in the test with FoxM1 is “significant downregulation”.

Take `COc1cccc2c1C(=O)c1c(O)c3c(c(O)c1C2=O)C[C@@](O)(C(=O)CO)C[C@@H]3O[C@H]1C[C@H](N)[C@H](O)[C@H](C)O1` [Doxorubicin]: the “p21 expression normalized to Actb expression, fold change between treated and untreated cells” value in the test with p21 is on record as “significant upregulation”.

Source of the values: patent US10745741B2, “Cell barcoding in microfluidics” (EUROPEAN MOLECULAR BIOLOGY LABORATORY, priority 2015, dated 2020).
